In the oligonucleotide strings, read from the 5' end, every base follows the letter of its sugar. An asterisk marks phosphorothioate; unmarked linkages are phosphodiester. Other units and linkages are bracketed, terminal groups are in braces. A string of capitals states the bases alone. d = 2'-deoxy (DNA); m = 2'-O-methyl
Target: T1, human TLR7 (Homo sapiens, UniProt Q9NYK1)
T1 construct: HA; host or cells: 293XL-hTLR7-HA (HEK293)
T1 sequence (Q9NYK1 27-1049): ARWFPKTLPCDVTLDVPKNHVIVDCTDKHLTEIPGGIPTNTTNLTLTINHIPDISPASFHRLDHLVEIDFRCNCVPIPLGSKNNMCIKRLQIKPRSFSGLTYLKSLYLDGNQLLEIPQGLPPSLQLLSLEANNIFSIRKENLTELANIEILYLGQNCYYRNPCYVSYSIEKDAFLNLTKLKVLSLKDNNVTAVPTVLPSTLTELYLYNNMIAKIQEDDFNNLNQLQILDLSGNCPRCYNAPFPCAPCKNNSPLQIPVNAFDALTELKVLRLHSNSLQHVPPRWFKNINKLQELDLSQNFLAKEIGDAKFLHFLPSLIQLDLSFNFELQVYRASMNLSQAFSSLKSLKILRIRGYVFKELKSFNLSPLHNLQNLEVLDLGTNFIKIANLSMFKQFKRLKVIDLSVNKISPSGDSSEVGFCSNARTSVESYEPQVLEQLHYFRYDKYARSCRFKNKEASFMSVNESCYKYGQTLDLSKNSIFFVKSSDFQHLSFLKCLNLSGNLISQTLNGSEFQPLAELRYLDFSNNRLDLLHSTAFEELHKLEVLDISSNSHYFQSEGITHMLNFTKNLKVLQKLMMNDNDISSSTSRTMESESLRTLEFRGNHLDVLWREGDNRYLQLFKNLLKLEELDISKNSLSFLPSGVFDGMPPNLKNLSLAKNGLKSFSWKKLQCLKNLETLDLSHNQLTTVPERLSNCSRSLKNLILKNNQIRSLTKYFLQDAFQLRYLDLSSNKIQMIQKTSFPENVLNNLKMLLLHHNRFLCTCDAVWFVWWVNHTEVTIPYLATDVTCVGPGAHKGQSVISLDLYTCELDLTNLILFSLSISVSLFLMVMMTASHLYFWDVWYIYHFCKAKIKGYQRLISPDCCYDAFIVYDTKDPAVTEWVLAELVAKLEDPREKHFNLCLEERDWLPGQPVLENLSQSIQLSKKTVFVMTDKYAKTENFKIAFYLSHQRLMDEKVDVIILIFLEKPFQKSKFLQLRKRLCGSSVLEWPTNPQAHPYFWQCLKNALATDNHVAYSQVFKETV
Assay: HEK-TLR7 NF-κB-luciferase reporter, R848 stimulation
Type: cell-based
Conditions: for TLR7 400 nM: 3mer 2'OMe ASO at 400 nM; for TLR7 400 nM / TLR7 2 uM: value relative to Ligand only = 1.000, NT = 0.000; for TLR7 2 uM: 3mer 2'OMe ASO at 2 uM

dA*dG*dC (DNA AGC; listed as DNA, chemistry not fully specified)
TLR7 400 nM (HEK-TLR7): 1.401
TLR7 2 uM (HEK-TLR7): 0.726

CCU (mC*mC*mU)
TLR7 400 nM (HEK-TLR7): 1.210
TLR7 2 uM (HEK-TLR7): 0.880

mC*mG*mU*T*T*C*C*C*C*C*C*C*C*C*C*C*C*C*C*C (CGUTTCCCCCCCCCCCCCCC; antisense; sugars from the 5' end m3 d17, all phosphorothioate, methylation of C not given here) [[C2]Mut1-v3-dC]
inhibition of R848 sensing by TLR7, short pre-treatment (in words) (HEK-TLR7, 100-500 nM oligo 20-50 min before R848 1 μg/ml): significantly altered TLR7 inhibition

mG*mC*mG*mG*mU*A*T*C*C*A*T*G*T*C*C*mC*mA*mG*mG*mC (mG*mC*mG*mG*mU*dA*dT*dC*dC*dA*dT*dG*dT*dC*dC*mC*mA*mG*mG*mC; antisense) [C2-Mut1]
IC50 (HEK-TLR7, oligo ~30-50 min before 1 μg/ml R848 overnight, read-out: IC50 (R848 sensing by TLR7)): 44 nM

GCCATGTTTCTTCTTG (antisense; LNA-modified, pattern not given here) [MB21D1-1248 LNA KL]
TLR7 100 nM (averaged NF-κB-Luciferase level relative to R848 condition) (ASO 100 nM, relative to R848 only, given as fraction): 0.816
TLR7 500 nM (averaged NF-κB-Luciferase level relative to R848 condition) (ASO 500 nM, relative to R848 only, given as fraction): 0.021

UUG (listed as RNA, chemistry not fully specified)
TLR7 400 nM (HEK-TLR7): 0.945
TLR7 2 uM (HEK-TLR7): 1.074

GGU (mG*mG*mU)
TLR7 400 nM (HEK-TLR7): 0.938
TLR7 2 uM (HEK-TLR7): 0.847

AAU (antisense mA*mA*mU)
TLR7 400 nM (HEK-TLR7): 1.340
TLR7 2 uM (HEK-TLR7): 0.888
